By ED50 is commonly meant the dose that gives a 50% effect, or the effect in half of the subjects.

These results are taken from US4162316A (priority 1975, dated 1979).

In the assay the test system is male guinea-pigs. Briefly: animal or person. Particulars: Cavia porcellus, ip, 2 h, read-out: Antitussive activity ED50-value (i.p.). In kind it is in vivo.
As to `COc1ccccc1N1CCN(C(Cc2cccc(C)c2)c2ccccc2)CC1` (racemic) [Compound 31, dl-1-(2-Methoxyphenyl)-4-[1-phenyl-2-(3-tolyl)ethyl]-piperazine], the median effective dose (ED50) is ~6 mg/kg. In the case of `COc1ccccc1N1CCN(C(Cc2cccc(C)c2)c2ccccc2)CC1` (stereo not drawn) [Compound 32, l-1-(2-Methoxyphenyl)-4-[1-phenyl-2-(3-tolyl)ethyl]piperazine] it was ~6 mg/kg; in that of `COc1ccc2c3c1O[C@H]1[C@@H](O)C=C[C@H]4[C@@H](C2)N(C)CC[C@@]341` [L, Codeine phosphate, reference compound], 12.2 mg/kg.
